Source: PubChem BioAssay (NCI)
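A five-concentration, 48-hour dose response in 96-well plates underlies each endpoint, interpolated linearly between surrounding concentrations. Here, GI50 denotes the concentration required for 50% inhibition of growth. TGI marks complete inhibition of growth.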

Experiments:
Test in all cases: growth of human tumour cells (NCI), 48 h
[1] = system: NCI-H522 lung
[2] = system: OVCAR-4 ovarian
[3] = system: IGROV1 ovarian
[4] = system: MOLT-4 leukemia
[5] = system: NCI/ADR-RES ovarian
[6] = system: 786-0 renal
[7] = system: SK-OV-3 ovarian
[8] = system: SF-268 CNS
[9] = system: SF-539 CNS
[10] = system: SW-620 colon
[11] = system: ACHN renal
[12] = system: HL-60(TB) leukemia
[13] = system: A498 renal
[14] = system: NCI-H23 lung
[15] = system: SK-MEL-28 melanoma
[16] = system: MDA-MB-435
[17] = system: U251 CNS
[18] = system: HT29 colon
[19] = system: CAKI-1 renal
[20] = system: SN12C renal
[21] = system: SF-295 CNS
[22] = system: DU-145 prostate
[23] = system: RPMI-8226 leukemia
[24] = system: HCT-116 colon
[25] = system: CCRF-CEM leukemia
[26] = system: UACC-257 melanoma
[27] = system: NCI-H226 lung
[28] = system: SNB-19 CNS
[29] = system: OVCAR-5 ovarian
[30] = system: RXF 393 renal
[31] = system: OVCAR-3 ovarian
[32] = system: BT-549 breast
[33] = system: OVCAR-8 ovarian
[34] = system: UO-31 renal
[35] = system: HCC-2998 colon
[36] = system: UACC-62 melanoma
[37] = system: T-47D breast
[38] = system: PC-3 prostate
[39] = system: HOP-62 NSCLC
[40] = system: NCI-H460 lung
[41] = system: COLO 205 colon
[42] = system: LOX IMVI melanoma
[43] = system: KM12 colon
[44] = system: M14 melanoma
[45] = system: SR leukemia
[46] = system: TK-10 renal
[47] = system: SNB-75 CNS
[48] = system: K-562 leukemia
[49] = system: A549 NSCLC
[50] = system: HOP-92 NSCLC
[51] = system: HCT-15 colon
[52] = system: MCF7 breast
[53] = system: MDA-MB-231 breast
[54] = system: HS 578T breast
[55] = system: EKVX NSCLC
[56] = system: SK-MEL-2 melanoma
[57] = system: SK-MEL-5 melanoma
[58] = system: MALME-3M melanoma

With `COC(=O)[C@]12CC[C@@H](C)[C@H](C)[C@@H]1C1=CC[C@@H]3[C@@]4(C)C=C(O)C(=O)C(C)=C4CC[C@@]3(C)[C@]1(C)CC2` the GI50 [1] was 3.92 µM, the TGI [1] was 14.7 µM and the GI50 [2] was 11.9 µM. The TGI [2] was 26.3 µM, the GI50 [3] was 13.4 µM and the TGI [3] was 36.5 µM. For the same compound, the GI50 [4] was 4.71 µM, the TGI [4] was 20.7 µM and the GI50 [5] was 12.7 µM. The TGI [5] was 31.7 µM, the GI50 [6] was 16.4 µM and the TGI [6] was 32.6 µM. The GI50 [7] was 15.6 µM, the TGI [7] was 38.4 µM and the GI50 [8] was 15.2 µM. The TGI [8] was 35.1 µM, the GI50 [9] was 12.2 µM and the TGI [9] was 27.2 µM. For the same compound, the GI50 [10] was 17.3 µM, the TGI [10] was 35.7 µM and the GI50 [11] was 5.4 µM. It also gave a TGI [11] of 19.3 µM, a GI50 [12] of 13.7 µM and a TGI [12] of 35.7 µM. The GI50 [13] was 19.5 µM, the TGI [13] was 34.1 µM and the GI50 [14] was 11 µM. The TGI [14] was 27.8 µM, the GI50 [15] was 15.8 µM and the TGI [15] was 34 µM. For the same compound, the GI50 [16] was 13.8 µM, the TGI [16] was 28.2 µM and the GI50 [17] was 16.9 µM. The TGI [17] was 33.6 µM, the GI50 [18] was 9.35 µM and the TGI [18] was 23 µM. For the same compound, the GI50 [19] was 12.4 µM, the TGI [19] was 31.4 µM and the GI50 [20] was 19.2 µM. The TGI [20] was 50.4 µM, the GI50 [21] was 15.8 µM and the TGI [21] was 37.9 µM. For the same compound, the GI50 [22] was 15.2 µM, the TGI [22] was 33.3 µM and the GI50 [23] was 8.62 µM. It also gave a TGI [23] of 32.8 µM, a GI50 [24] of 6.03 µM and a TGI [24] of 20.6 µM. The GI50 [25] was 5.26 µM, the TGI [25] was 23.4 µM and the GI50 [26] was 20 µM. The TGI [26] was 42.2 µM, the GI50 [27] was 12.3 µM and the TGI [27] was 41 µM. It also gave a GI50 [28] of 18.7 µM, a TGI [28] of 40.9 µM and a GI50 [29] of 17.8 µM. It also gave a TGI [29] of 38.6 µM, a GI50 [30] of 12.1 µM and a TGI [30] of 27.9 µM. It also gave a GI50 [31] of 11.6 µM, a TGI [31] of 24.5 µM and a GI50 [32] of 15.5 µM. The TGI [32] was 37.4 µM, the GI50 [33] was 16.9 µM and the TGI [33] was 39.4 µM. It also gave a GI50 [34] of 11.6 µM, a TGI [34] of 26.3 µM and a GI50 [35] of 8.6 µM. It also gave a TGI [35] of 23.3 µM, a GI50 [36] of 14.5 µM and a TGI [36] of 31.3 µM. It also gave a GI50 [37] of 5.86 µM, a TGI [37] of 30.8 µM and a GI50 [38] of 4.16 µM. The TGI [38] was 18.4 µM, the GI50 [39] was 18 µM and the TGI [39] was 35.9 µM. The GI50 [40] was 18.9 µM, the TGI [40] was 37.3 µM and the GI50 [41] was 12.5 µM. The TGI [41] was 30.1 µM, the GI50 [42] was 13 µM and the TGI [42] was 27.4 µM. The GI50 [43] was 7.72 µM, the TGI [43] was 21.8 µM and the GI50 [44] was 11 µM. It also gave a TGI [44] of 29 µM, a GI50 [45] of 5.29 µM and a TGI [45] of 28.2 µM. The GI50 [46] was 18.2 µM, the TGI [46] was 35.8 µM and the GI50 [47] was 13.9 µM. The TGI [47] was 31.3 µM, the GI50 [48] was 14.3 µM and the TGI [48] was 39.2 µM. It also gave a GI50 [49] of 15.1 µM, a TGI [49] of 31.2 µM and a GI50 [50] of 11.6 µM. The TGI [50] was 26.2 µM, the GI50 [51] was 11.9 µM and the TGI [51] was 27.6 µM. It also gave a GI50 [52] of 10.8 µM, a TGI [52] of 26.9 µM and a GI50 [53] of 13 µM. For the same compound, the TGI [53] was 30.2 µM, the GI50 [54] was 22.2 µM and the TGI [54] was 57.1 µM. The GI50 [55] was 4.96 µM, the TGI [55] was 19.5 µM and the GI50 [56] was 14.6 µM. The TGI [56] was 31.6 µM, the GI50 [57] was 15.4 µM and the TGI [57] was 28.8 µM. The GI50 [58] was 22.4 µM and the TGI [58] was 42.8 µM.
